Experimental data taken from patent US7332512B2, “Halogenated nitrobutadienes for controlling animal pests” (priority 2001, dated 2008).

Columns and labels:
Type in all cases: in vivo
[1] = test system: Adults of Ctenocephalides felis; assay: Test with cat fleas/oral uptake (Example L); details: orally, 28 h
Method: Test with Cat Fleas/Oral Uptake
To produce a suitable formulation, a suitable solution of active compound is prepared from 20 mg of active compound and 1 ml of DMSO. 15 μl of this formulation are added to 3 ml of citrated cattle blood and stirred.
10 unfed adult fleas (Ctenocephalides felis, strain “Georgi”) are placed into a chamber (Ø 3.2 cm) whose top and bottom are closed with gauze. A metal cylinder whose underside is covered with parafilm is placed onto the chamber. The cylinder contains the 3 ml of blood/active compound formulation which can be taken up by the fleas through the paraffin membrane. Whereas the blood is warmed to 37° C., the temperature in the area of the flea chambers is adjusted to 25° C. Controls are mixed with the same volume of DMSO, without addition of a compound. The determinations are carried out in triplicate.
After 28 h, the mortality in % (=dead fleas) is determined.
Compounds which effect at least 25% kill of the fleas within 28 h are judged to be effective.

[2] = test system: green peach aphid (Myzus persicae); assay: Myzus test (Example G), infested cabbage leaves dipped; details: 500 ppm active compound, 6 days
Method: (§1) To produce a suitable preparation of active compound, 1 part by weight of active compound is mixed with the stated amounts of solvent and emulsifier, and the concentrate is diluted with emulsifier-containing water to the desired concentration.
Cabbage leaves (Brassica oleracea), which are heavily infested by the green peach aphid (Myzus persicae) are treated by being dipped into the preparation of active compound of the desired concentration.
(§2) After the desired period of time, the kill in % is determined. 100% means that all aphids have been killed; 0% means that none of the aphids have been killed.

[3] = test system: eggs of the diamondback moth (Plutella xylostella); assay: Plutella test (Example C), synthetic feed; details: 150 ppm active compound; 7 days; kill of eggs and/or larvae
Method: To produce a suitable preparation of active compound, 1 part by weight of active compound is mixed with the stated amount of solvent and the concentrate is diluted with methanol to the desired concentrations.
The stated amount of the preparation of active compound of the desired concentration is pipetted onto a standardized amount of synthetic feed. After the methanol has evaporated, about 200-300 eggs of the diamondback moth (Plutella xylostella) are placed onto the feed.
After the desired period of time, the kill of the eggs and/or larvae in % is determined. 100% means that all animals have been killed; 0% means that none of the animals have been killed.

Myzus persicae [4] = assay: Critical concentration test/root-systemic action (Example K), compound mixed with soil, broad beans; details: 4 ppm in soil
Method: (§3) Critical Concentration Test/Root-Systemic Action
(§4) To produce a suitable preparation of active compound, 1 part by weight of active compound is mixed with the stated amount of solvent, the stated amount of emulsifier is added and the concentrate is diluted with water to the desired concentration.
The preparation of active compound is mixed intimately with the soil. Here, the concentration of the active compound in the preparation is virtually immaterial, only the amount by weight of active compound per volume unit of soil, which is stated in ppm ([…]) matters. The treated soil is filled into pots of a volume of 250 ml, and pregerminated broad beans are planted into these pots. In this way, the active compound can be taken up from the soil by the plant roots and be transported into the leaves.
The root-systemic action of the active compound is derived from the kill rate. It is 100% if all test animals have been killed and 0% if the number of test insects still alive is exactly the same as in the untreated control.

[5] = test system: larvae of the mustard beetle (Phaedon cochleariae); assay: Phaedon larvae test (Example H), dipped cabbage leaves; details: 500 ppm active compound; 6 days
Method: as §1
(§5) Cabbage leaves (Brassica oleracea) are treated by being dipped into the preparation of active compound of the desired concentration and are populated with larvae of the mustard beetle (Phaedon cochleariae) while the leaves are still moist.
(§6) After the desired period of time, the kill in % is determined. 100% means that all beetle larvae have been killed; 0% means that none of the beetle larvae have been killed.

[6] = test system: cotton aphid (Aphis gossypii); assay: Aphis gossypii test (Example D), infested cotton leaves dipped; details: 500 ppm active compound; 6 days
Method: as §1
Cotton leaves (Gossypium hirsutum) which are heavily infested by the cotton aphid (Aphis gossypii) are treated by being dipped into the preparation of active compound of the desired concentration.
as §2

Lucilia cuprina larvae = assay: Blowfly larvae test/development-inhibitory action (Example N); details: 48 h
Method: Blowfly Larvae Test/Development-Inhibitory Action
(§7) 20 mg of active compound are dissolved in 1 ml of dimethyl sulphoxide, more dilute concentrations are prepared by dilution with dist. H2O.
About 20 Lucilia cuprina larvae are introduced into a test tube which contains about 1 cm^3 of horse meat and 0.5 ml of the preparation of active compound to be tested. After 24 and 48 hours, the efficacy of the preparation of active compound is determined. The test tubes are transferred into a beaker whose bottom is covered with sand. After a further 2 days, the test tubes are removed and the pupae are counted.
The efficacy of the preparation of active compound is assessed by the number of flies that have hatched after 1.5 times the period of development of an untreated control. 100% means that no flies have hatched; 0% means that all flies have hatched normally.

[7] = test system: larvae of the mustard beetle (Phaedon cochleariae); assay: Phaedon larvae test (Example B), dipped cabbage leaves; details: 100 ppm active compound; 6 days
Method: as §1, §5, §6

[8] = test system: green peach aphid (Myzus persicae); assay: Myzus test (Example A), infested broad bean seedlings dipped; details: 500 ppm active compound, 6 days
Method: To produce a suitable preparation of active compound, 1 part by weight of active compound is mixed with the stated amounts of solvent and emulsifier, and the concentrate is diluted with water to the desired concentration.
Broad bean seedlings (Vicia faba minor) which are infested by the green peach aphid (Myzus persicae) are dipped into a preparation of active compound of the desired concentration and placed into a plastic box.
(§8) After the desired period of time, the kill in % is determined. 100% means that all animals have been killed; 0% means that none of the animals have been killed.

[9] = test system: eggs, larvae and pupae of the white fly (Bemisia tabaci); assay: Bemisia test (Example I), infected cotton plants dipped; details: 500 ppm active compound; 6 days
Method: To produce a suitable preparation of active compound, 1 part by weight of active compound is mixed with the stated amounts of solvent and emulsifier, and the concentrate is diluted with water to the desired concentrations.
Cotton plants (Gossypium hirsutum) infected by eggs, larvae and pupae of the white fly (Bemisia tabaci) are dipped into a preparation of active compound of the desired concentration.
as §8

Myzus persicae [10] = assay: Critical concentration test/root-systemic action (Example F), soil drench; details: 20 ppm in soil; 10 days; root-systemic; savoy cabbage
Method: as §3, §4
(§9) The preparation of active compound is poured onto the soil of the infected savoy cabbage plant. In this way, the active compound can be taken up from the soil by the roots of the plants and can be transported into the leaves. Here, the concentration of active compound in the preparation is virtually immaterial, only the amount by weight per volume unit of soil, which is stated in ppm ([…]), matters.
(§10) The root-systemic action of the active compound is derived from the kill rate. It is 100% if all test animals have been killed and 0% if the number of test insects alive is the same as that for the untreated control.

Aphis gossypii = assay: Critical concentration test/root-systemic action (Example E), soil drench; details: 20 ppm in soil; 10 days; root-systemic; savoy cabbage
Method: as §3, §4, §9, §10

[11] = test system: adult Musca domestica, Reichswald strain (OP, SP, carbamate-resistant); assay: Test with flies (Musca domestica) (Example M), treated filter paper; details: time of reading not given
Method: Test with Flies (Musca domestica)
as §7
2 ml of this active compound preparation are pipetted onto filter paper discs (Ø 9.5 cm) in Petri dishes of corresponding dimensions. After the filter discs have been dried, 25 test animals are transferred into the Petri dishes, which are then covered.
After 1, 3, 5, 24 and 48 hours, the activity of the active compound preparation is determined. 100% means that all flies have been killed; 0% means that none of the flies have been killed.

[12] = test system: caterpillars of the armyworm (Spodoptera frugiperda); assay: Spodoptera frugiperda test (Example J), dipped cabbage leaves; details: 500 ppm active compound; 7 days; % only printed in method b344
Method: Spodoptera frugiperda Test
as §1
Cabbage leaves (Brassica oleracea) are treated by being dipped into the preparation of active compound of the desired concentration and are populated with caterpillars of the armyworm (Spodoptera frugiperda) while the leaves are still moist.
After the desired period of time, the kill in % is determined. 100% means that all caterpillars have been killed; 0% means that none of the caterpillars have been killed.

SMILES	% action/kill ([1]; 20 ppm in cattle blood)	% action/kill ([1]; 100 ppm in cattle blood)	Kill rate in % after 6 d (days) [2]	% kill after weeks (Myzus persicae [4]; after 2 weeks)	% kill after weeks (Myzus persicae [4]; after 3 weeks)	% kill after weeks (Myzus persicae [4]; after 4 weeks)	Kill rate in % after 6 d (days) [5]	% action/kill (Lucilia cuprina larvae; 20 ppm)	% action/kill (Lucilia cuprina larvae; 100 ppm)	Kill rate in % after 6 d (days) [8]	Kill rate in % after 6 d (days) [9]	Kill rate in % after 10 d (days) (Myzus persicae [10])	Kill rate in % after 10 d (days) (Aphis gossypii)	further results
Cc1ccc(SC(=C(Cl)Cl)C(=C2NCCN2Cc2ccc(Cl)nc2)[N+](=O)[O-])cc1 [Example I-3, 2-chloro-5-[2-(2-(p-tolylthio)-3,3-dichloro-1-nitroallylidene)imidazolidin-1-ylmethyl]pyridine]	0%	50%	–	–	–	–	–	–	–	–	–	–	–	–
O=[N+]([O-])/C(C(=C(Cl)Cl)N1CCOCC1)=C1\NCCN1Cc1ccc(Cl)nc1 [Example I-2, 2-chloro-5-[2-(2-morpholinyl-3,3-dichloro-1-nitro-allylidene)imidazolidin-1-ylmethyl]pyridine]	80%	80%	100%	100%	100%	99%	100%	0%	100%	100%	100%	100%	100%	Kill rate in % after 7 d (days) [3]: 100%; Kill rate in % after 6 d (days) [6]: 100%; Kill rate in % after 6 d (days) [7]: 100%; % action/kill ([1]; 0.8 ppm in cattle blood): 0%; % action/kill ([1]; 4 ppm in cattle blood): 0%; % action/kill ([11]; 20 ppm): 0%; % action/kill ([11]; 100 ppm): 50%
O=[N+]([O-])/C(C(=C(Cl)Cl)N1CCSCC1)=C1\NCCN1Cc1ccc(Cl)nc1 [Example I-11]	0%	70%	100%	–	–	–	100%	0%	100%	–	–	–	–	–
CN(C(=C(Cl)Cl)/C(=C1/NCCN1Cc1ccc(Cl)nc1)[N+](=O)[O-])C(C)(C)C [Example I-12]	30%	70%	–	–	–	–	–	0%	100%	–	–	–	–	Rate of activity after 7 d (days) [12]: 100%
O=[N+]([O-])/C(C(Cl)=C(Cl)Cl)=C1\NCCN1Cc1ccc(Cl)nc1 [Example I-1, 2-chloro-5-[2-(2,3,3-trichloro-1-nitroallylidene)imidazolidin-1-ylmethyl]pyridine]	–	–	–	100%	100%	99%	–	0%	100%	100%	–	100%	100%	% kill after weeks (Myzus persicae [4]; after 5 weeks): 100%
O=[N+]([O-])/C(C(=C(Cl)Cl)N1CCCC1)=C1\NCCN1Cc1ccc(Cl)nc1 [Example I-10]	40%	100%	–	–	–	–	–	–	–	–	100%	–	–	–
